Converted amounts (≈) assume the structure as drawn. Read-outs that look alike come from different tables or passages of the source. Marks after values point to notes of the source that are not given here.
Tests used:
[1] = tested on: Pseudomonas aeruginosa MDR 301 from Poland (V2); experiment: MIC assay, CAMHB with alginate oligomer, no visible growth; type: cell-based; conditions: V2 MDR 301 PA
[2] = tested on: Acinetobacter baumannii MDR ACB from Libya (V4); experiment: as above; type: cell-based
Source text: The study described in Example 1 was repeated with the following strains of bacteria and antibiotics as detailed in Tables 4, 5 and 6.
The study described in Example 1 was repeated with the following strains of Acinetobacter baumannii, antibiotics and M-block alginate oligomer in place of OligoG CF-5/20 as detailed in Table 7. The M-block oligomer is 100% M with a DPn of 15 to 18,

[3] = tested on: V10 (Egypt) Acinetobacter lwoffii; experiment: as above; type: cell-based; conditions: Table 5, V10 MDR Acin. lwoff
V11 5702 (Wales) E. coli = experiment: as above; type: cell-based; conditions: Table 5, V11 MDR E.coli
V22 6056 Acinetobacter = experiment: as above; type: cell-based, Acinetobacter lwoffii; conditions: Table 5, V22 MDR Acin. lwoff
[4] = tested on: strains of Klebsiella pneumoniae displaying MDR phenotypes; experiment: MIC-assay, Mueller-Hinton broth with G-block alginate, 384-well, OD600 (Table 10); type: cell-based
Source text: Minimum inhibitory concentration (MICs) of different antibiotics for strains of Klebsiella pneumoniae displaying MDR phenotypes in the presence of varying concentrations of OligoCF-5/20 (0-10%). (MIC values are expressed in μg ml^−1).

MDR Providencia stuartii = experiment: MIC-assay, Mueller-Hinton broth with G-block alginate, 384-well, OD600 (Table 11); type: cell-based; conditions: Providencia stuartii (IR57 India, V7) MDR
Source text: (§1) Minimum inhibitory concentration (MICs) of different antibiotics for strains of E. coli and Providencia stuartii displaying MDR phenotypes in the presence of varying concentrations of OligoCF-5/20 (0-10%). (MIC values are expressed in μg ml^−1).

[5] = tested on: strains of E. coli displaying MDR phenotypes; experiment: as above; type: cell-based; conditions: Escherichia coli, Escherichia coli (5702, Wales, V11) MDR, read-out: MIC
Source text: as §1

[6] = tested on: Staphylococcus aureus (MRSA) U50; experiment: MIC-assay, Mueller-Hinton broth with G-block alginate, 384-well, OD600 (Table 12); type: cell-based; conditions: MRSA 1040s, U50 MDR
Source text: Minimum inhibitory concentration (MICs) of different antibiotics for strains of Streptococcus oralis and Staphylococcus aureus (MRSA) displaying MDR phenotypes in the presence of varying concentrations of OligoCF-5/20 (0-10%). (MIC values are expressed in μg ml^−1).

[7] = tested on: Pseudomonas aeruginosa (MDR 301, PSA, V2); experiment: MIC-assay, Mueller-Hinton broth with G-block alginate, 384-well, OD600; conditions: Pseudomonas aeruginosa, Table 8, V2
[8] = tested on: Pseudomonas aeruginosa (R22, PSA, V1); experiment: as above
[9] = tested on: Acinetobacter lwoffii (6056, V22); experiment: as above
[10] = tested on: Acinetobacter baumannii (Egypt, V9); experiment: as above
[11] = tested on: Acinetobacter lwoffii (Egypt, V10); experiment: as above
[12] = Table 9, G-block (OligoCF-5/20) 0%
[13] = Table 9, G-block (OligoCF-5/20) 2%
[14] = Table 9, G-block (OligoCF-5/20) 6%
[15] = Table 9, G-block (OligoCF-5/20) 10%

For CC[C@H]1OC(=O)[C@H](C)[C@@H](O[C@H]2C[C@@](C)(OC)[C@@H](O)[C@H](C)O2)[C@H](C)[C@@H](O[C@@H]2O[C@H](C)C[C@H](N(C)C)[C@H]2O)[C@](C)(O)C[C@@H](C)CN(C)[C@H](C)[C@@H](O)[C@]1(C)O [Azithromycin], the MIC ([1]; Pseudomonas aeruginosa, Table 1, OligoCF-5/20 0G, read-out: MIC) was 64 µg/mL (≈ 85.4 µM), the MIC ([1]; Pseudomonas aeruginosa, Table 1, OligoCF-5/20 +2% G, read-out: MIC) was 64 µg/mL (≈ 85.4 µM) and the MIC ([1]; Pseudomonas aeruginosa, Table 1, OligoCF-5/20 +6% G, read-out: MIC) was 32 µg/mL (≈ 42.7 µM). For the same compound, the MIC ([1]; Pseudomonas aeruginosa, Table 1, OligoCF-5/20 +10% G, read-out: MIC) was 16 µg/mL (≈ 21.4 µM), the MIC ([1]; Table 2, OligoCF-5/20 0G) was 64^† and the MIC ([1]; Table 2, OligoCF-5/20 +2% G) was 64 µg/mL (≈ 85.4 µM). The MIC ([1]; Table 2, OligoCF-5/20 +6% G) was 32^†, the MIC ([1]; Table 2, OligoCF-5/20 +10% G) was 16^† and the MIC ([2]; Acinetobacter baumannii, Table 1, V4 ACB (Libya), OligoCF-5/20 0G, read-out: MIC) was 8 µg/mL (≈ 10.7 µM). The MIC ([2]; Acinetobacter baumannii, Table 1, V4 ACB (Libya), OligoCF-5/20 +2% G, read-out: MIC) was 2 µg/mL (≈ 2.67 µM), the MIC ([2]; Acinetobacter baumannii, Table 1, V4 ACB (Libya), OligoCF-5/20 +6% G, read-out: MIC) was less than 0.25 µg/mL and the MIC ([2]; Acinetobacter baumannii, Table 1, V4 ACB (Libya), OligoCF-5/20 +10% G, read-out: MIC) was less than 0.25 µg/mL. The MIC ([2]; Acinetobacter baumannii, Table 7, V4 MDR Acin baum (Libya), M-block oligomer 0M, read-out: MIC) was 8 µg/mL (≈ 10.7 µM), the MIC ([2]; Acinetobacter baumannii, Table 7, V4 MDR Acin baum (Libya), M-block oligomer +2% M, read-out: MIC) was 8 µg/mL (≈ 10.7 µM) and the MIC ([2]; Acinetobacter baumannii, Table 7, V4 MDR Acin baum (Libya), M-block oligomer +6% M, read-out: MIC) was 8 µg/mL (≈ 10.7 µM). The MIC ([2]; Acinetobacter baumannii, Table 7, V4 MDR Acin baum (Libya), M-block oligomer +10% M, read-out: MIC) was 2 µg/mL (≈ 2.67 µM), the “effect in combination with alginate oligomers” value ([2]; Example 1, Acinetobacter baumannii isolate) was “more positive effect” and the MIC ([2]; Table 2, V4 ACB (Libya), OligoCF-5/20 0G) was 8^†. For the same compound, the MIC ([2]; Table 2, V4 ACB (Libya), OligoCF-5/20 +2% G) was 2^†, the MIC ([2]; Table 2, V4 ACB (Libya), OligoCF-5/20 +6% G) was <0.25^† and the MIC ([2]; Table 2, V4 ACB (Libya), OligoCF-5/20 +10% G) was <0.25†. It also gave an MIC ([3]; Acinetobacter lwoffii, OligoCF-5/20 0G, read-out: MIC) of less than 0.25 µg/mL, an MIC ([3]; OligoCF-5/20 +2% G) of less than 0.25 µg/mL and an MIC ([3]; OligoCF-5/20 +6% G) of less than 0.25 µg/mL. For the same compound, the MIC ([3]; OligoCF-5/20 +10% G) was less than 0.25 µg/mL, the MIC (V11 5702 (Wales) E. coli; Escherichia coli, OligoCF-5/20 0G, read-out: MIC) was 32 µg/mL (≈ 42.7 µM) and the MIC (V11 5702 (Wales) E. coli; OligoCF-5/20 +2% G) was 16^† μg/ml. For the same compound, the MIC (V11 5702 (Wales) E. coli; OligoCF-5/20 +6% G) was 16^† μg/ml, the MIC (V11 5702 (Wales) E. coli; OligoCF-5/20 +10% G) was 32 µg/mL (≈ 42.7 µM) and the MIC (V22 6056 Acinetobacter; Acinetobacter, OligoCF-5/20 0G, read-out: MIC) was less than 0.25 µg/mL. For the same compound, the MIC (V22 6056 Acinetobacter; OligoCF-5/20 +2% G) was less than 0.25 µg/mL, the MIC (V22 6056 Acinetobacter; OligoCF-5/20 +6% G) was less than 0.25 µg/mL and the MIC (V22 6056 Acinetobacter; OligoCF-5/20 +10% G) was less than 0.25 µg/mL. For the same compound, the MIC ([4]; Klebsiella pneumoniae (5712, Wales, V12) MDR, G-block (OligoCF-5/20) 0%, read-out: MIC) was 16 µg/mL (≈ 21.4 µM), the MIC ([4]; Klebsiella pneumoniae (5712, Wales, V12) MDR, G-block (OligoCF-5/20) 2%, read-out: MIC) was 16 µg/mL (≈ 21.4 µM) and the MIC ([4]; Klebsiella pneumoniae (5712, Wales, V12) MDR, G-block (OligoCF-5/20) 6%, read-out: MIC) was 16 µg/mL (≈ 21.4 µM). For the same compound, the MIC ([4]; Klebsiella pneumoniae (5712, Wales, V12) MDR, G-block (OligoCF-5/20) 10%, read-out: MIC) was 16 µg/mL (≈ 21.4 µM), the MIC ([4]; Klebsiella pneumoniae (IR25, India, V6) MDR, G-block (OligoCF-5/20) 0%) was 128 µg/mL (≈ 171 µM) and the MIC ([4]; Klebsiella pneumoniae (IR25, India, V6) MDR, G-block (OligoCF-5/20) 2%, read-out: MIC) was 64 µg/mL (≈ 85.4 µM). For the same compound, the MIC ([4]; Klebsiella pneumoniae (IR25, India, V6) MDR, G-block (OligoCF-5/20) 6%, read-out: MIC) was 32 µg/mL (≈ 42.7 µM), the MIC ([4]; Klebsiella pneumoniae (IR25, India, V6) MDR, G-block (OligoCF-5/20) 10%, read-out: MIC) was 16 µg/mL (≈ 21.4 µM) and the MIC ([4]; Klebsiella pneumoniae (K3, India, V8) MDR, G-block (OligoCF-5/20) 0%, read-out: MIC) was 16 µg/mL (≈ 21.4 µM). The MIC ([4]; Klebsiella pneumoniae (K3, India, V8) MDR, G-block (OligoCF-5/20) 2%, read-out: MIC) was 8 µg/mL (≈ 10.7 µM), the MIC ([4]; Klebsiella pneumoniae (K3, India, V8) MDR, G-block (OligoCF-5/20) 6%, read-out: MIC) was 16 µg/mL (≈ 21.4 µM) and the MIC ([4]; Klebsiella pneumoniae (K3, India, V8) MDR, G-block (OligoCF-5/20) 10%, read-out: MIC) was 16 µg/mL (≈ 21.4 µM). It also gave an MIC (MDR Providencia stuartii; G-block (OligoCF-5/20) 0%) of less than 2 µg/mL, an MIC (MDR Providencia stuartii; G-block (OligoCF-5/20) 2%) of less than 2 µg/mL and an MIC (MDR Providencia stuartii; G-block (OligoCF-5/20) 6%) of less than 2 µg/mL. It also gave an MIC (MDR Providencia stuartii; G-block (OligoCF-5/20) 10%) of less than 2 µg/mL, an MIC ([5]; G-block (OligoCF-5/20) 0%) of 16 µg/mL (≈ 21.4 µM) and an MIC ([5]; G-block (OligoCF-5/20) 2%) of 16 µg/mL (≈ 21.4 µM). It also gave an MIC ([5]; G-block (OligoCF-5/20) 6%) of 8 µg/mL (≈ 10.7 µM), an MIC ([5]; G-block (OligoCF-5/20) 10%) of 16 µg/mL (≈ 21.4 µM) and an MIC ([6]; G-block (OligoCF-5/20) 0%) of 512 µg/mL (≈ 684 µM). The MIC ([6]; G-block (OligoCF-5/20) 2%) was 256 µg/mL (≈ 342 µM), the MIC ([6]; G-block (OligoCF-5/20) 6%) was 256 µg/mL (≈ 342 µM) and the MIC ([6]; G-block (OligoCF-5/20) 10%) was 256 µg/mL (≈ 342 µM). The MIC ([7]; G-block (OligoCF-5/20) 2%) was 64 µg/mL (≈ 85.4 µM), the MIC ([7]; G-block (OligoCF-5/20) 6%) was 64 µg/mL (≈ 85.4 µM) and the MIC ([7]; G-block (OligoCF-5/20) 10%) was 32 µg/mL (≈ 42.7 µM). It also gave an MIC ([8]; Table 8, G-block (OligoCF-5/20) 2%) of 32 µg/mL (≈ 42.7 µM), an MIC ([8]; Table 8, G-block (OligoCF-5/20) 6%) of 32 µg/mL (≈ 42.7 µM) and an MIC ([8]; Table 8, G-block (OligoCF-5/20) 10%) of 8 µg/mL (≈ 10.7 µM). It also gave an MIC [9, 12] of less than 2 µg/mL, an MIC [9, 13] of less than 2 µg/mL and an MIC [9, 14] of less than 2 µg/mL. It also gave an MIC [9, 15] of less than 2 µg/mL, an MIC [10, 12] of 4 µg/mL (≈ 5.34 µM) and an MIC [10, 13] of less than 1 µg/mL. It also gave an MIC [10, 14] of less than 1 µg/mL, an MIC [10, 15] of less than 1 µg/mL and an MIC [11, 12] of less than 1 µg/mL. For the same compound, the MIC [11, 13] was less than 1 µg/mL, the MIC [11, 14] was less than 1 µg/mL and the MIC [11, 15] was less than 1 µg/mL.
